In patent US20100310530A1, “Cell Therapy for Brain Tissue Damage” (StemCyte Inc., priority 2009, published 2010):

Assays:
Epac1 = test: Western blot of Epac1 in hUCB^34 cells after hypoxia preconditioning or DFX; format: cell-based, human; settings: cells treated with DFX, under either hypoxic or normoxic conditions
Method: (§1) hUCB^34 cells (1×10^6/mL) were cultured in a StemSpan SFEM medium (StemCell Technologies, Vancouver, Canada) at 37° C. in 5% CO2-humidified incubators in normoxic (20% O2) or hypoxic (1% O2) conditions as previously described (Ivanovic et al., 2000, Br J Haematol 108:424-429). Hypoxic cultures were cultivated in a two-gas incubator (Jouan, Winchester, Va., USA) equipped with an O2 probe to regulate N2 levels. Cell number and viability were evaluated using trypan blue exclusion assay. For flowcytometry, cells were incubated with anti-human CD34 (Miltenyi Biotec, Gladbach, Germany) and then analyzed on a FACSCalibur flow cytometer (Becton, Dickinson and Co.). To produce chemical hypoxia, cells were treated in a medium containing […] of Desferrioxamine (DFX, Sigma-Aldrich, MO) that mimics hypoxic conditions by inhibiting the hydroxylation of a prolyl residue that is essential for the ubiquitination of HIF-1α (Schioppa et al., 2003, J Exp Med 198:1391-1402). […] The intensity of each band was measured using a Kodak Digital Science 1D Image Analysis System (Eastman Kodak, Rochester, N.Y.). The ratio of band intensity of Western blots in comparison with the internal control was calculated. Results were expressed as the mean value of the ratio±SEM for preparations.

[1] = system: hypoxia-inducible factor-1α (HIF-1α); test: Western blot of HIF-1α in HP- and DFX-treated hUCB^34 cells; format: cell-based, human; settings: HP- and DFX-treated hUCBs^34
Method: as §1

cerebral ischemia rats = test: Neurological behavioral measurements after cerebral ischemia (MCA ligation); format: in vivo, rat; settings: GM6001 ip after HP-hUCB^34 implantation, or brefeldin A-incubated HP-hUCB^34; vs vehicle control
Method: (§2) Experimental rats and mice were divided into three groups (FIG. 2A): Intracerebral transplantation of hUCB^34 with HP (HP-hUCB^34), intracerebral transplantation of hUCB^34 without HP (hUCB^34), and a vehicle-control group. All transplantation took place on day 7. The HP-hUCB^34 group was treated in 1% O2 hypoxic conditions for 20-24 hours. Cerebral ischemia was induced in every experimental rat on day 0. At 7 days after cerebral ischemia, experimental rats in the two intracerebral hUCB^34 transplantation groups were injected stereotaxically with approximately 2×10^5 cells of hUCB^34 labeled with bis-benzimide in a 3-5 μL PBS suspension through a 26- or 30-gauge Hamilton syringe into 3 cortical areas, 3.0 to 5.0 mm (2.0 to 3.0 mm for mice) below the dura. The approximate coordinates for these sites were 1.0 to 2.0 mm (0 to 1.0 mm for mice) anterior to the bregma and 3.5 to 4.0 mm (2.0 to 2.5 mm for mice) lateral to the midline, 0.5 to 1.5 mm (0 to 1.0 mm for mice) posterior to the bregma and 4.0 to 4.5 mm (2.0 to 3.5 mm for mice) lateral to the midline, and 3.0 to 4.0 mm (1.5 to 2.5 mm for mice) posterior to the bregma and 4.5 to 5.0 mm (2.0 to 3.0 mm for mice) lateral to the midline. The needle was retained in place for 5 minutes after each injection and a piece of bone wax was applied to the skull defects to prevent leakage of the injected solution. […]

ischemic rat brains = test: Cell engraftment and neural differentiation in ischemic brain (immunofluorescent colocalization); format: in vivo; settings: injection of GM6001 or brefeldin A-pretreatment of cells
Method: as §2

cerebral ischemic rats = test: Neurite regeneration in vivo in cerebral ischemic rats; parameters: species or system rat; settings: cells incubated with 10 μg/mL brefeldin A
Method: Experimental rats and mice were divided into three groups (FIG. 2A): Intracerebral transplantation of hUCB^34 with HP (HP-hUCB^34), intracerebral transplantation of hUCB^34 without HP (hUCB^34), and a vehicle-control group. All transplantation took place on day 7. The HP-hUCB^34 group was treated in 1% O2 hypoxic conditions for 20-24 hours. Cerebral ischemia was induced in every experimental rat on day 0. At 7 days after cerebral ischemia, experimental rats in the two intracerebral hUCB^34 transplantation groups were injected stereotaxically with approximately 2×10^5 cells of hUCB^34 labeled with bis-benzimide in a 3-5 μL PBS suspension through a 26- or 30-gauge Hamilton syringe into 3 cortical areas, 3.0 to 5.0 mm (2.0 to 3.0 mm for mice) below the dura. […]
Measurement of neurite regeneration was performed as described earlier (Cafferty et al., 2004, J Neurosci 24:4432-4443). […] For quantification analysis, neurons with processes greater than twice the cell body diameter were counted as neurite-bearing cells. The length of the longest neurite of each neuron was measured from digitized images and quantified using imaging analysis software (SigmaScan 4.01.003).

SMILES	levels of Epac1 versus control cells (Epac1)	protein level of HIF-1α [1]	neurological behavior recovery after HP-hUCB^34 implantation in presence of inhibitor (cerebral ischemia rats)	number of engrafted cells in HP-hUCB^34-treated rats with inhibitor (ischemic rat brains)	neurite regeneration after transplantation of brefeldin A-incubated HP-hUCB^34 (cerebral ischemic rats)
CC(=O)N(O)CCCCCNC(=O)CCC(=O)N(O)CCCCCNC(=O)CCC(=O)N(O)CCCCCN [DFX, Desferrioxamine]	much higher levels of Epac1 than control cells	increase in the protein level			
C[C@H]1CCC/C=C/[C@@H]2C[C@H](O)C[C@H]2[C@H](O)/C=C/C(=O)O1 [brefeldin A]			down-regulated to the same extent as that of control group	diminished	could not promote the neurite regeneration
CNC(=O)[C@H](Cc1c[nH]c2ccccc12)NC(=O)[C@@H](CC(=O)NO)CC(C)C [GM6001]			almost no recovery	diminished	
